Among the data in patent US12473295B2, “Substituted straight chain spiro derivatives” (Janssen Pharmaceutica NV, priority 2019, dated 2025) are IC50 values, retold here.

Where a name gives a salt, the structure may show the parent alone.

In experiment [1] the target is menin/MLL (terbium chelate-labeled menin, FITC-MBM1 peptide) (Homo sapiens (Human), UniProt O00255). The experiment is described as follows: Menin/MLL homogenous time-resolved fluorescence (HTRF) assay.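 Also: IC50 from percent inhibition of HTRF signal, normalized between wells without competitor and wells with a saturating competitor that displaces FITC-MBM1 from His-tagged menin.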 The experiment is classed as binding. The note with it: HTRF-30 min incubation IC50, 30 min incubation. On the technique in general: In TR-FRET formats the signal depends on donor and acceptor labels being close together.
menin/MLL (terbium chelate-labeled menin, FITC-MBM1 peptide), sequence (O00255 other isoform, or with tags, fused parts or gaps): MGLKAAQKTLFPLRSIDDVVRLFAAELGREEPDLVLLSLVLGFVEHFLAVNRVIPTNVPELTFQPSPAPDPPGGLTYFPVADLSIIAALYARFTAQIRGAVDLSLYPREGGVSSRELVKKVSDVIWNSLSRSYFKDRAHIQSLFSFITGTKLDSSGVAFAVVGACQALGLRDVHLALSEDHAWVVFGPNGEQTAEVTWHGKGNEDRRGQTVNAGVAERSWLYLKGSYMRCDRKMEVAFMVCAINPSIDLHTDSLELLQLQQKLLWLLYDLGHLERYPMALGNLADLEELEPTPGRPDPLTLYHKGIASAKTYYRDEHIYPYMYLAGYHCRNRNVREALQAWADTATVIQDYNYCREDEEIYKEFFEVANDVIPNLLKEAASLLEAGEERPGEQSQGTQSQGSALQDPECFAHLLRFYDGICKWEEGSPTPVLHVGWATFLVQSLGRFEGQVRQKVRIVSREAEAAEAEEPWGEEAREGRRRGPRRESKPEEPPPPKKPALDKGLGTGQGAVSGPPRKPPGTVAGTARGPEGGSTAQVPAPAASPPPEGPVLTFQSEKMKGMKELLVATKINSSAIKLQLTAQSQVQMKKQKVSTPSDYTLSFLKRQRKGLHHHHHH

Experiment [2] deals with MEIS1 mRNA. The experiment is described as follows: MEIS1 mRNA expression assay (Quantigene Singleplex) in MOLM14 cells.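 Also: MEIS1 transcript levels read by probe hybridization and normalized to RPL28 mRNA, with IC50 fitted to fold changes across a rising compound concentration series.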 The experiment is classed as cell-based, human. Particulars: Homo sapiens, MOLM-14, 48 h, 48 hours incubation.
Experiment [3] has as its system MOLM14 cells. Put plainly: Proliferation assay (spheroid growth, 8 days), MOLM14.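 Also: spheroid size read as confluence by live-cell imaging, compounds added at a range of concentrations with 0.3% DMSO, DMSO-treated wells = 0%, highest reference dose = low control.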 Particulars: Homo sapiens, MOLM-14, […], MOLM14, 8 days; read-out: spheroid assay_OneTime MOLM14 IC50. The experiment is classed as cell-based, human.
In experiment [4] the test system is OCI-AML3 cells. The experiment is described as follows: Proliferation assay (spheroid growth, 8 days), OCI-AML3. The experiment is classed as cell-based, human. Particulars: Homo sapiens, OCI-AML-3, […], OCI-AML3, 8 days. Put shortly: (§1)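 8-day spheroid growth in ultra-low attachment plates; seeding 200 cells (MOLM14, OCI-AML3) or 300 (KO-52); DMSO 0.3%. Day-8 imaging, confluence vs DMSO (0%) and top reference dose (baseline); IC50 by variable-slope fit.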

The subject of experiment [5] is KO-52 cells. The experiment is described as follows: Proliferation assay (spheroid growth, 8 days), KO-52 control cell line. In kind it is cell-based, human. The note with it: Homo sapiens, […], read-out: spheroid assay_OneTime KO-52 IC50. Put shortly:
as §1

For the compound `CCN(C(=O)c1cc(F)ccc1Oc1nncnc1N1CCC2(C1)CN([C@H](CCCN(C)C[C@H](C)C(=O)N(C)C)C(C)C)C2)C(C)C` (single isomer, unassigned) [Compound 189, 2-((5-(2-((R)-6-(((*S)-3-(dimethylamino)-2-methyl-3-oxopropyl)(methyl)amino)-2-methylhexan-3-yl)-2,6-diazaspiro[3.4]octan-6-yl)-1,2,4-triazin-6-yl)oxy)-N-ethyl-5-fluoro-N-isopropylbenzamide fumarate], the concentration for half-maximal inhibition (IC50) – broadly, the concentration at which inhibition is half-maximal – in experiment [1] was 0.22 nM; in experiment [2] it was 19 nM; in experiment [3], 30 nM; in experiment [4], 190 nM; in experiment [5], above 15000 nM.
On to `CCN(CC)C[C@H](O)C[C@H](C(C)C)N1CC2(CCN(c3ncnnc3Oc3ccc(F)cc3C(=O)N(CC)C(C)C)C2)C1` (single isomer, unassigned) [Compound 334, 2-((5-(2-((3*R,5*R)-6-(diethylamino)-5-hydroxy-2-methylhexan-3-yl)-2,6-diazaspiro[3.4]octan-6-yl)-1,2,4-triazin-6-yl)oxy)-N-ethyl-5-fluoro-N-isopropylbenzamide fumarate], for which the IC50 in experiment [1] is 0.079 nM; in experiment [2], 11 nM; in experiment [3], 12 nM; in experiment [4] it was 130 nM; in experiment [5], above 15000 nM.
With `CCN(C(=O)c1cc(F)ccc1Oc1nncnc1N1CCC2(C1)CN([C@H](CCCN(C)C[C@H](COC)OC)C(C)C)C2)C(C)C` (single isomer, unassigned) [Compound 176, 2-((5-(2-((R)-6-(((*R)-2,3-dimethoxypropyl)(methyl)amino)-2-methylhexan-3-yl)-2,6-diazaspiro[3.4]octan-6-yl)-1,2,4-triazin-6-yl)oxy)-N-ethyl-5-fluoro-N-isopropylbenzamide fumarate], the IC50 in experiment [1] was 0.13 nM; in experiment [2], 17 nM; in experiment [3] it was 38 nM; in experiment [4] it was 120 nM; in experiment [5], above 15000 nM.
In the case of `CC(C)[C@@H](CCCN(C)[C@H](C)CC(N)=O)N1CC2(CCN(c3ncnnc3Oc3ccc(F)cc3C(=O)N(C(C)C)C(C)C)C2)C1` (single isomer, unassigned) [Compound 199, 2-((5-(2-((*R)-6-(((R)-4-amino-4-oxobutan-2-yl)(methyl)amino)-2-methylhexan-3-yl)-2,6-diazaspiro[3.4]octan-6-yl)-1,2,4-triazin-6-yl)oxy)-5-fluoro-N,N-diisopropylbenzamide fumarate], the IC50 was 0.13 nM in experiment [1]; around 260 nM in experiment [2]; 460 nM in experiment [3]; 1910 nM in experiment [4]; above 15000 nM in experiment [5].
Taken in the same sequence, the figures for `CCN(C(=O)c1cc(F)ccc1Oc1nncnc1N1CCC2(C1)CN(C(CCCN)C(C)C)C2)C(C)C` (centres unmarked) [Compound 3, 2-((5-(2-(6-amino-2-methylhexan-3-yl)-2,6-diazaspiro[3.4]octan-6-yl)-1,2,4-triazin-6-yl)oxy)-N-ethyl-5-fluoro-N-isopropylbenzamide formate] were 0.1 nM, 95 nM, 42 nM, 310 nM and above 15000 nM.
For `CCN(C(=O)c1cc(F)ccc1Oc1nncnc1N1CCC2(C1)CN([C@H](CCCN[C@@H](CO)COC)C(C)C)C2)C(C)C` [Compound 163, N-ethyl-5-fluoro-2-((5-(2-((R)-6-(((S)-1-hydroxy-3-methoxypropan-2-yl)amino)-2-methylhexan-3-yl)-2,6-diazaspiro[3.4]octan-6-yl)-1,2,4-triazin-6-yl)oxy)-N-isopropylbenzamide], the IC50 in experiment [1] is 0.089 nM; in experiment [2], 20 nM; in experiment [3] it was 18 nM; in experiment [4] it was 120 nM; in experiment [5] it was above 15000 nM.
Take `CCN(C(=O)c1cc(F)ccc1Oc1nncnc1N1CCC2(C1)CN([C@H](CCCN(C)C[C@@H](C)C(=O)N(C)C)C(C)C)C2)C(C)C` (single isomer, unassigned) [Compound 188]: the IC50 is 0.43 nM in experiment [1]; 34 nM in experiment [2]; 55 nM in experiment [3]; 340 nM in experiment [4]; above 15000 nM in experiment [5].
With `CCN(C(=O)c1cc(F)ccc1Oc1nncnc1N1CCC2(C1)CN([C@H](CCNCCCOC)C(C)C)C2)C(C)C` (single isomer, unassigned) [Compound 271, (*R)—N-ethyl-5-fluoro-N-isopropyl-2-((5-(2-(1-((3-methoxypropyl)amino)-4-methylpentan-3-yl)-2,6-diazaspiro[3.4]octan-6-)-1,2,4-triazin-6-yl)oxy)benzamide], the IC50 in experiment [1] is 0.27 nM; in experiment [2] it was 100 nM; in experiment [3], 65 nM; in experiment [4], 160 nM; in experiment [5], above 15000 nM.
With `CCN(C)C[C@@H](O)C[C@H](C(C)C)N1CC2(CCN(c3ncnnc3Oc3ccc(F)cc3C(=O)N(CC)C(C)C)C2)C1` (single isomer, unassigned) [Compound 342, N-ethyl-2-((5-(2-((3*S,5S)-6-(ethyl(methyl)amino)-5-hydroxy-2-methylhexan-3-yl)-2,6-diazaspiro[3.4]octan-6-yl)-1,2,4-triazin-6-yl)oxy)-5-fluoro-N-isopropylbenzamide fumarate], the IC50 came to 0.17 nM in experiment [1]; 78 nM in experiment [2]; 10 nM in experiment [3]; 25 nM in experiment [4]; 23 nM in experiment [5].
As to `CCN(C(=O)c1cc(F)ccc1Oc1nncnc1N1CCC2(C1)CN([C@H](CCCN(C)CC(CO)OC)C(C)C)C2)C(C)C` (stereo partly drawn) [Compound 170, N-ethyl-5-fluoro-2-((5-(2-((3R)-6-((3-hydroxy-2-methoxypropyl)(methyl)amino)-2-methylhexan-3-yl)-2,6-diazaspiro[3.4]octan-6-yl)-1,2,4-triazin-6-yl)oxy)-N-isopropylbenzamide fumarate], the IC50 in experiment [1] was 0.1 nM; in experiment [2], 37 nM; in experiment [3], 25 nM; in experiment [4], 41 nM; in experiment [5], above 15000 nM.
As to `CC(C)[C@@H](C[C@H](O)CN(C)C)N1CC2(CCN(c3ncnnc3Oc3ccc(F)cc3C(=O)N(C(C)C)C(C)C)C2)C1` (single isomer, unassigned) [Compound 366], the IC50 in experiment [1] was 0.088 nM; in experiment [2] it was 20 nM; in experiment [3], 17 nM; in experiment [4], 76 nM; in experiment [5], above 15000 nM.
As for `CCN(C(=O)c1cc(F)ccc1Oc1nncnc1N1CCC2(C1)CN([C@H](CCCN(C)CC(C)(C)OC)C(C)C)C2)C(C)C` [Compound 137, (R)-N-ethyl-5-fluoro-N-isopropyl-2-((5-(2-(6-((2-methoxy-2-methylpropyl)(methyl)amino)-2-methylhexan-3-yl)-2,6-diazaspiro[3.4]octan-6-yl)-1,2,4-triazin-6-yl)oxy)benzamide fumarate], the IC50 in experiment [1] came to 0.18 nM; in experiment [2], 25 nM; in experiment [3] it was 45 nM; in experiment [4] it was 160 nM; in experiment [5], 7290 nM.
In the case of `CCN(C(=O)c1cc(F)ccc1Oc1nncnc1N1CCC2(C1)CN(C(CCN)C(C)C)C2)C(C)C` (centres unmarked) [Compound 26, 2-((5-(2-(1-amino-4-methylpentan-3-yl)-2,6-diazaspiro[3.4]octan-6-yl)-1,2,4-triazin-6-yl)oxy)-N-ethyl-5-fluoro-N-isopropylbenzamide], the IC50 in experiment [1] was 0.28 nM; in experiment [2], 490 nM; in experiment [3], 270 nM; in experiment [4] it was 1340 nM; in experiment [5], above 15000 nM.
Turning to `CCN(C(=O)c1cc(F)ccc1Oc1nncnc1N1CCC2(C1)CN([C@H](CCCNC[C@@H](O)COC)C(C)C)C2)C(C)C` [Compound 281, N-ethyl-5-fluoro-2-((5-(2-((R)-6-(((R)-2-hydroxy-3-methoxypropyl)amino)-2-methylhexan-3-yl)-2,6-diazaspiro[3.4]octan-6-yl)-1,2,4-triazin-6-yl)oxy)-N-isopropylbenzamide formate], the IC50 is 0.24 nM in experiment [1]; 38 nM in experiment [2]; 48 nM in experiment [3]; 90 nM in experiment [4]; above 15000 nM in experiment [5].
For the compound `CCN(C(=O)c1cc(F)ccc1Oc1nncnc1N1CCC2(C1)CN([C@H](CCCN(C)C[C@@H](COC)OC)C(C)C)C2)C(C)C` (single isomer, unassigned) [Compound 177, 2-((5-(2-((R)-6-(((*S)-2,3-dimethoxypropyl)(methyl)amino)-2-methylhexan-3-yl-2,6-diazaspiro[3.4]octan-6-yl)-1,2,4-triazin-6-yl)oxy)-N-ethyl-5-fluoro-N-isopropylbenzamide fumarate], the IC50 was 0.062 nM in experiment [1]; 7.3 nM in experiment [2]; 24 nM in experiment [3]; 64 nM in experiment [4]; above 15000 nM in experiment [5].
Regarding `CCN(C(=O)c1cc(F)ccc1Oc1nncnc1N1CCC2(C1)CN([C@H](CCCN(C)[C@H](C)CC(=O)NC)C(C)C)C2)C(C)C` [Compound 191, N-ethyl-5-fluoro-N-isopropyl-2-((5-(2-((R)-2-methyl-6-(methyl((R)-4-(methylamino)-4-oxobutan-2-yl)amino)hexan-3-yl)-2,6-diazaspiro[3.4]octan-6-yl)-1,2,4-triazin-6-yl)oxy)benzamide fumarate], the concentration for half-maximal inhibition (IC50) was 0.28 nM in experiment [1]; 220 nM in experiment [2]; 280 nM in experiment [3]; 560 nM in experiment [4]; above 15000 nM in experiment [5].
